Experimental data taken from US10829466B2, “Stilbene derivative and preparation method thereof” (BEIJING INSTITUTE OF TECHNOLOGY, priority 2015, dated 2020).
“Also recorded” adds a separate entry of the source.

Experiments:
[1] = tested on: HEK293; experiment: In vitro cytotoxicity experiment (MTT, cell survival); type: cell-based; settings: for neuronal cytotoxicity / neurotoxicity (in words): HEK293, in vitro test, FIG. 3; for cell survival rates: HEK293, 24 h, MTT, at all three doses, low, medium and high (100 μM; 500 μM; 1000 μM)
Procedure: Example 35: In Vitro Cytotoxicity Experiment the Experimental Cell Line is HEK293
Cells are cultured in a 96-well plate at a cell concentration of 5000/well. After 24 hours of cell culture, the drug treatment is performed and the experiment is carried out on two groups: the control group is added with DMSO with the same concentration as that for the experimental group; in the experimental group, each compound is tested at three doses of low, medium and high doses (100 μM; 500 μM; 1000 μM), and five parallels are tested at each dose; in the blank group, a complete medium is added with a compound to be tested with the same concentration as that for the experimental group. Constant temperature incubation is carried out for 24 h in a CO2 incubator, MTT with a final concentration of 0.5 mg/mL is then added; 4 hours later, 200 μL of DMSO solution is added, and the absorbance is measured at 490 nm. The cell survival is calculated according to the absorbance; Survival %=(Average concentration−Blank concentration)/(Average control concentration−Blank concentration)*100%.
Reference is made to FIG. 3 which illustrates an in vitro cytotoxicity test chart of a novel stilbene derivative according to an example of embodiments of the present invention.

[2] = tested on: neurogenesis in rat hippocampus; experiment: Detection of neurogenesis in rat hippocampus by BrdU labeling (DAB immunohistochemistry); type: in vivo; settings: for BrdU labeling result: SD male rats, intraperitoneal injection 28 days, 4 mg/Kg, compared with the control group; for activity of proliferation promotion (BrdU positive) at low dose: low dose 0.5 mg/Kg, compared with blank sample (V), FIG. 10; for neurogenesis activity (in words): under the test conditions of the embodiments, same dose
Source text: Example 36: Detection of Neurogenesis in Rat Hippocampus by BrdU (5-Bromo-2-deoxy Uridine, 5-bromodeoxyuridine) Labeling
Experimental animals: 10-week-old SD male rats having a body weight of about 300 g are purchased. The rats are used in experiments one week after being adapted to the environment in an animal room. Experimental groups: control group, drug group. 2-3 rats per group. Experimental reagent: injection oil is used to dissolve a compound to be tested. Rates in the control group are injected with the same dose of dissolving oil.
Test method: intraperitoneal injection is carried out 28 days at the injection dose of 0.5 ml-1 ml each time. Dose: 4 mg/Kg.
1) marker injection: BrdU (dissolved in sterile saline solution at a concentration of 10 mg/mL) solution is injected intraperitoneally into rats. (For rats with different body weights, the injection dose of BrdU is 50 mg·Kg^−1, injection is carried out twice every 2 hour; the intraperitoneal injection 24 hours before anesthesia ends.
2) Anesthesia: Anesthesia is performed by intraperitoneal injection of sodium pentobarbital solution into rats. (For rats with different body weights, the injection dose of sodium pentobarbital is usually 70 mg·Kg^−1.)
3) Cardiac perfusion: cardiac perfusion with normal saline is performed according to a general method.
4) Taking of brain tissues: The heads of the rats are separated from the bodies with surgical forceps and scissors, and then the muscles and membrane tissues at the top of the skulls are removed and brains are then gently peeled from the skulls. The separated brains are soaked in 4% paraformaldehyde for 24-48 hours.
5) Dehydration of brain tissues: the fixed tissues are soaked with a 20% sucrose PBS solution for more than 72 hours, and then the brain tissues are soaked with a 30% sucrose PBS solution for more than 72 hours.
6) Frozen section: the brain tissues are cut into […] thick sections by a general coronal section procedure.
7) DAB immunohistochemistry step: DNA denaturation is carried out and the sections are transferred to a 24-well plate (pH 7.4) perfused with 0.1 M PBS. The brain sections are incubated with 1% H2O2 for 30 minutes to remove […]; the sections are then treated with a 2M HCl solution for 30 minutes at room temperature to denature them. After completion of the denaturation, the brain sections are immersed in a 0.1 M sodium borate (pH 8.5) solution for 5 minutes and rinsed twice; the brain sections are incubated in 0.5% PBST for 1 hour at room temperature, and then are blocked for 1 hour with a serum blocking solution on a shaker at room temperature, and the serum blocking solution is from the same source as a secondary antibody; the samples are treated on the shaker with a BrdU primary antibody overnight at 4° C., and the BrdU primary antibody is diluted with the blocking solution; the samples are incubated with the biotinylated secondary antibody IgG for 2 hours at room temperature; a C (ABC kit) solution is incubated at room temperature for 2 hours; finally, after 3 to 5 minutes of color development by the DAB kit, the samples are mounted by using a PVP mounting medium and then dried, and finally the experimental results are detected under a microscope.
The dose-effect relationships of different compounds is further tested according to the method of Example 36, and the compounds include WS-54 (E-4-isobutyrylamino-3′,4′-methylenedioxy-stilbene), WS-69 (E-4-Methylsulfonamino-3′,4′-methylenedioxy-stilbene), WS-70 (E-4-Benzamino-3′,4′-methylenedioxy-stilbene), and WS-74 (E-4-Cyclopropylformamino-3′,4′-methylenedioxy-stilbene).

Molecule	neuronal cytotoxicity / neurotoxicity (in words) [1]	BrdU labeling result [2]	further results
CC(C)C(=O)Nc1ccc(/C=C/c2ccc3c(c2)OCO3)cc1 [WS-54, E-4-isobutyrylamino-3′,4′-methylenedioxy-stilbene]	low neurotoxicity	positive	activity of proliferation promotion (BrdU positive) at low dose [2]: significant activities of proliferation promotion
CC(=O)Nc1ccc(C#Cc2ccc3c(c2)OCO3)cc1 [WS-77, E-4′-acetamino-3,4-methylenedioxy-diphenylacetylene, reference compound]	–	positive	neurogenesis activity (in words) [2]: weak neurogenesis activity
O=C(Nc1ccc(/C=C/c2ccc3c(c2)OCO3)cc1)c1ccccc1 [WS-70, E-4-benzoylamino-3′,4′-methylenedioxy-stilbene]	low neurotoxicity; also recorded: greatly reduced	positive	activity of proliferation promotion (BrdU positive) at low dose [2]: significant activities of proliferation promotion
E-4′-tertamino-3,4-methylenedioxy-stilbene [WS-60, reference compound]	–	–	neurogenesis activity (in words) [2]: weak neurogenesis activity
O=C(Nc1ccc(/C=C/c2ccc3c(c2)OCO3)cc1)C1CC1 [WS-74, E-4-cyclopropylcarboxamino-3′,4′-methylenedioxy-stilbene]	low neurotoxicity; also recorded: greatly reduced	positive	activity of proliferation promotion (BrdU positive) at low dose [2]: significant activities of proliferation promotion
CC(=O)Nc1cccc(/C=C/c2ccc3c(c2)OCO3)c1 [WS-49, E-3-acetylamino-3′,4′-methylenedioxy-stilbene, reference compound]	higher neuronal cytotoxicity	–	cell survival rates [1]: ≤ 20%
COc1ccc(/C=C/c2ccc(NC(C)=O)cc2)cc1OC [WS-43, E-4′-acetylamino-3,4-dimethoxy-stilbene, reference compound]	–	–	neurogenesis activity (in words) [2]: no significant neurogenesis activity
CC(=O)N(C)c1ccc(/C=C/c2ccc3c(c2)OCO3)cc1 [WS-80, E-4′-(N-acetyl-N-methylamino)-3,4-methylenedioxy-stilbene, reference compound]	–	negative	neurogenesis activity (in words) [2]: no significant neurogenesis activity
COc1cc(/C=C/c2ccc(NC(C)=O)cc2)cc(OC)c1 [WS-61, E-4-acetylamino-3′,5′-dimethoxy-stilbene, reference compound]	reduce neurotoxicity	–	–
O=S(=O)(Nc1ccc(/C=C/c2ccc3c(c2)OCO3)cc1)C1CC1 [LSS-13, E-4-cyclopropylsulfonylamino-3′,4′-methylenedioxy-stilbene]	–	positive	–
E-4′-acetamino-3,4-methylenedioxy-diphenylethane [WS-35, reference compound]	–	–	neurogenesis activity (in words) [2]: no neurogenesis activity
Nc1ccc(/C=C/c2ccc3c(c2)OCO3)cc1 [WS-4, E-4-amino-3′,4′-methylenedioxy-stilbene, reference compound]	high neuronal cytotoxicity	–	cell survival rates [1]: less than 50%
COc1cc(/C=C/c2ccc(OC(C)=O)cc2)cc(OC)c1 [WS-56, E-4-acetoxy-3′,5′-dimethoxy-stilbene, reference compound]	–	–	activity of proliferation promotion (BrdU positive) at low dose [2]: no significant activity
O=C(Nc1ccc(/C=C/c2ccc3c(c2)OCO3)cc1)C1CCC1 [WS-83, E-4-cyclobutylformamino-3′,4′-methylenedioxy-stilbene]	–	positive	–
CS(=O)(=O)Nc1ccc(/C=C/c2ccc3c(c2)OCO3)cc1 [WS-69, E-4-methanesulfonylamino-3′,4′-methylenedioxy-stilbene]	low neurotoxicity	positive	activity of proliferation promotion (BrdU positive) at low dose [2]: significant activities of proliferation promotion
CC(=O)Nc1ccc(/C=C/c2ccc3c(c2)OCO3)cc1F [WS-71, E-3,4-methylenedioxy-3′-fluoro-4′-acetylamino-stilbene]	low neurotoxicity	positive	–
O=C(Nc1ccc(/C=C/c2ccc3c(c2)OCO3)cc1)c1cccs1 [WS-73, E-4-(2-thienyl)formamino-3′,4′-methylenedioxy-stilbene]	low neurotoxicity	positive	–
CN(C)S(=O)(=O)Nc1ccc(/C=C/c2ccc3c(c2)OCO3)cc1 [LSS-17, E-4-(N,N-dimethylamino-sulfonamino)-3′,4′-methylenedioxy-stilbene]	–	positive	–
O=S(=O)(Nc1ccc(/C=C/c2ccc3c(c2)OCO3)cc1)c1ccccc1 [LSS-12, E-4-benzenesulfonylamino-3′,4′-methylenedioxy-stilbene]	–	positive	–
O=C(Nc1ccc(/C=C/c2ccc3c(c2)OCO3)cc1)c1ccccn1 [LSS-20, E-4-(2-pyridinecarboxamino)-3′,4′-methylenedioxy-stilbene]	–	positive	–
CC(=O)Nc1ccc(/C=C/C(=O)c2ccc3c(c2)OCO3)cc1 [WS-37, 4-acetylamino-3′,4′-methylenedioxychalcone, reference compound]	higher neuronal cytotoxicity	–	cell survival rates [1]: less than 10%
Oc1ccc(/C=C/c2ccc3c(c2)OCO3)cc1 [WS-11, E-4′-hydroxy-3,4-methylenedioxy-stilbene, reference compound]	–	–	neurogenesis activity (in words) [2]: no neurogenesis activity
O=C(Cc1ccccc1)Nc1ccc(/C=C/c2ccc3c(c2)OCO3)cc1 [LSS-16, E-4-phenylacetylamino-3′,4′-methylenedioxy-stilbene]	–	positive	–
CC(=O)Oc1ccc(/C=C/c2ccc3c(c2)OCO3)cc1 [WS-10, E-4′-acetoxy-3,4-methylenedioxy-stilbene, reference compound]	–	–	neurogenesis activity (in words) [2]: no neurogenesis activity
